From US11376278B2, “Compositions and methods for treating disease” (Sulfilatec, Inc., priority 2016, dated 2022)
“And” between values parts separate entries of the source, which are not always exact repeats. Equal entries are not always repeated. “Also recorded” adds a separate entry of the source.

Legend:
[1] = system: salt sensitive Dahl rats on high salt diet; test: Survival of salt sensitive Dahl rats on high salt (8% NaCl) diet, 10 week study; assay type: in vivo, rat
From the text: Control rats received AIN76A without supplemental chloride or bromide. 9 rats per study arm.
Mortality events were counted over the 10 week study. […] Thus, administration of Br^− and together increased the survival probability of 52% as compared to administration of alone (FIG. 1).

[2] = Serum Br- concentration in spontaneously hypertensive rats (SHR) after 10 weeks on diet; assay type: in vivo, rat; settings: AIN-76A+Br diet
Description: (A) Serum Br^− concentrations from rats fed a daily diet over 10 weeks of “AIN-76A”, “AIN-76A+8% NaCl”, “AIN-76A+Br”, or “AIN-76A+8% NaCl+Br”. Salt sensitive Dahl rats as well as Spontaneously Hypertensive Rats (SHR) were used in these studies. The two diets containing 8% NaCl (eg. “AIN-76A+8% NaCl” and “AIN-76A+8% NaCl+Br”) were fed to Dahl rats while the remaining two diets (eg. “AIN-76A” and “AIN-76A+Br”) were fed to SHR, as indicated in panel A. Serum Br^− measurements were determined using mass spectrometry.
Rats were administered 10 mg of NaBr per kg of AIN76A diet for 10 weeks. At the end of the study, serum Br^− levels in Br-treated rats were compared to serum Br^− levels in SHR on AIN76A as well as Wistar rats on AIN76A.

[3] = system: spontaneously hypertensive rat (SHR) model of cardiovascular disease; test: 10 week repeat dosing study in SHR disease model (organ weights, survival, urinary protein, safety); assay type: in vivo
Description: (A-B) Heart and kidney weights from 10 week repeat dosing study in SHR model. Br^− administered daily via diet, with AIN-76a as base diet. WKY served as genetic control. Both kidneys per animal weighed together. […] (C-D) Heart and kidney weights from panels A-B normalized to body weight. […] (E) Rats were administered a diet of AIN76A with or without 10 mg NaBr per kg feed (“SHR” and “SHR+Br” study arms, respectively). Survival probability was calculated between SHR rats receiving dietary Br^− and SHR rats receiving AIN76A control diet over a 10 week study period. As a second control, Wistar Kyoto (WKY) rats were fed AIN76A control diet over the same period. 8 rats per study arm.
Eight SHR animals received AIN76A diet for 10 weeks while 8 SHR animals received AIN76A supplemented with 10 mg NaBr/kg diet.

cardiac fibrosis in SHR = test: Cardiac interstitial fibrosis, Masson's Trichrome staining, SHR; assay type: in vivo, rat; settings: male SHR, 10 mg NaBr per kg AIN-76a, oral daily, 10 weeks, p<0.0001
Description: (§1) AIN-76A was base diet for all animals. […] Fibrosis determined from 5 μm tissue sections stained with Masson's Trichrome. […] Approximately 25-30 images were collected and processed per animal.
Following conclusion of the in vivo study, rat hearts were formalin-fixed, paraffin-embedded, and 5 μm-thick sections were obtained for histochemical analysis.

[4] = system: cardiac fibrosis in salt sensitive Dahl rats on a high salt diet; test: Cardiac interstitial fibrosis, Masson's Trichrome staining, Dahl rats on high salt diet; assay type: in vivo, rat; settings: 300 mg NaBr per kg AIN-76a+8% NaCl, 10 weeks, p<0.0001
Description: as §1

10 week-old male SHR = test: Blood pressure and heart rate (tail cuff) one day after single IP administration in SHR; assay type: in vivo, rat; settings: single IP 154.5 μg NaBr per kg
Description: (A) In 10 week-old male SHR, single administration of Br^− reduced systolic and diastolic blood pressures compared to saline control. […] (C-D) Measured values for systolic (C) and diastolic (D) blood pressure, denoting statistical significance where achieved. 154.5 μg NaBr per kg rat body weight injected via IP. All “Post Administration” data collected one day following administration. n=8 in Br Treatment group, =5 in saline control. BP & HR measured via tail cuff. *:p<0.05, t test.
The inventors next asked whether Br^− exerts any short-term activity in addition to the improved cardiac fibrosis noted after 10 weeks administration. Returning to the SHR preclinical model of disease, the inventors specifically asked whether Br^− administration modulates certain biomarkers associated with cardiovascular disease at one day post-administration. To this end, Br^− was administered to 8 SHR via intraperitoneal (IP) injection with an estimated 0.154 μg NaBr per gram body weight. For control, 8 SHR were administered saline via IP injection containing an estimated 4 ng NaBr per gram body weight. […] Without wishing to be bound by theory, embodiments as described herein can therapeutically improve certain hemodynamic and circulating biomarkers that are associated with progression of cardiovascular and kidney diseases. Moreover, Br^− achieves its cardiovascular and renal therapeutic activities in part via modulation of natriuretic peptide signaling.

dogs (epilepsy) = settings: dogs that do not respond to an initial course of Br- treatment; cited from earlier work
[5] = system: humans (sedative, anti-epilepsy effect); settings: in vivo; cited from earlier work
[6] = Serum Br- concentration in Dahl rats after 10 weeks on diet (mass spectrometry); settings: AIN-76A+8% NaCl+Br diet
Description: (A) Serum Br^− concentrations from rats fed a daily diet over 10 weeks of “AIN-76A”, “AIN-76A+8% NaCl”, “AIN-76A+Br”, or “AIN-76A+8% NaCl+Br”. […] The two diets containing 8% NaCl (eg. “AIN-76A+8% NaCl” and “AIN-76A+8% NaCl+Br”) were fed to Dahl rats while the remaining two diets (eg. “AIN-76A” and “AIN-76A+Br”) were fed to SHR, as indicated in panel A. Serum Br^− measurements were determined using mass spectrometry.

[7] = system: acute heart failure patients; settings: acute heart failure patients in Japan; cited from earlier work
[8] = system: patients with acute decompensated heart failure; settings: cited from earlier work
[9] = one day post administration, vs saline

Question: Which results are given for `[Br-].[Na+]` [Br^−, sodium bromide]?
Answer: increase of survival probability compared to high salt alone ([1]; Dahl rats, 8% NaCl + 300 mg NaBr per kg food vs 8% NaCl, 10 weeks): 52%; survival probability ([1]; Dahl rats, AIN76A with 8% NaCl and 300 mg NaBr per kg food, 10 week study): 67%; survival probability vs High Salt alone (log rank test) ([1]; High Salt+Br arm (AIN76A+8% NaCl+300 mg NaBr per kg feed), 9 rats per arm, p<0.001): Significantly greater survival probability; serum Br- concentration, toxicity assessment [2]: non-toxic; survival probability among groups ([3]; SHR+Br vs SHR and WKY, 10 week study, 8 rats per arm): no statistical difference; absolute heart weight vs SHR on AIN-76a alone ([3]; SHR, 10 mg NaBr/kg diet daily, 10 weeks, p<0.05): significantly reduced; also recorded: Statistically significant reduction; urinary protein levels ([3]; SHR, 10 mg NaBr/kg diet, through the end of the 10 week study): a difference that persisted; urinary microprotein/creatinine ratio (urinary protein levels) ([3]; SHR, after one day on study diet (10 mg NaBr/kg)): significantly lower; also recorded: significantly reduced; cardiac fibrosis (Masson's Trichrome blue staining) (cardiac fibrosis in SHR): dramatic reduction; also recorded: less cardiac fibrosis; cardiac fibrosis (Masson's Trichrome) [4]: less cardiac fibrosis; diastolic blood pressure (10 week-old male SHR; [9]): reduced; systolic blood pressure (10 week-old male SHR; [9]): statistically significant reductions; also recorded: reduced; heart rate (10 week-old male SHR; one day post, not statistically significant (p=0.052)): possible reduction; therapeutic serum Br- for sedative effect (dogs (epilepsy)): above 25 mM; circulating/serum Br- levels at which the anti-epilepsy effect occurs [5]: > 6 mM and 6 to 12 mM; serum Br- concentration, toxicity assessment [6]: non-toxic

Question: With `CC[C@H](C)[C@@H]1NC(=O)[C@H](CCCNC(=N)N)NC(=O)[C@H](CC(=O)O)NC(=O)[C@H](CCSC)NC(=O)[C@H](CCCNC(=N)N)NC(=O)CNC(=O)CNC(=O)[C@H](Cc2ccccc2)NC(=O)[C@@H](NC(=O)[C@H](CO)NC(=O)[C@H](CO)NC(=O)[C@H](CCCNC(=N)N)NC(=O)[C@H](CCCNC(=N)N)NC(=O)[C@H](CC(C)C)NC(=O)[C@@H](N)CO)CSSC[C@@H](C(=O)N[C@@H](CC(N)=O)C(=O)N[C@@H](CO)C(=O)N[C@@H](Cc2ccccc2)C(=O)N[C@@H](CCCNC(=N)N)C(=O)N[C@@H](Cc2ccc(O)cc2)C(=O)O)NC(=O)CNC(=O)[C@H](CC(C)C)NC(=O)CNC(=O)[C@H](CO)NC(=O)[C@H](CCC(N)=O)NC(=O)[C@H](C)NC(=O)CNC1=O` [carperitide] as the compound, how does the in-hospital mortality [7] read?
Answer: Its in-hospital mortality is “increased in-hospital mortality”.

Question: With nesiritide as the compound, how does the mortality [8] read?
Answer: Its mortality is “increased mortality”.

Question: What about the renal function [8] of the same compound?
Answer: The renal function was “worsening renal function”.
